Patent publication US12594267B2, “Capsid inhibitors for the treatment of HIV” (Gilead Sciences, Inc., priority 2018, dated 2026)
Read-outs that look alike come from different tables or passages of the source.

Key:
NNRTI-resistant viruses = test: Cytopathic antiviral assay in MT-2 cells, NNRTI-resistant viruses; assay type: cell-based, HIV-1; details: for EC50 Fold-Change: Mutant/WT (HXB2D) EC50 ratio, mean ± s.d. of three experiments
Description: (§1) The antiviral activity of the compound of Formula (a) was tested against a panel of known HIV-1 mutants resistant to HIV PIs (ATV and DRV), NRTIs (TFV and FTC), NNRTIs (RPV and EFV) or INSTIs (RAL, EVG and DTG) using a cytopathic antiviral assay in MT-2 cells. The compound of Formula (Ia) was fully active against all tested mutants resistant to PIs (Table 11), NRTIs (Table 12), NNRTIs (Table 13) or INSTIs (Table 14).

[1] = Plasma PK after single oral administration in solution, summary over the four species; assay type: in vivo; details: male, Sprague-Dawley (rat), beagle (dog), range of species means (rat, dog, cynomolgus monkey, rhesus monkey)
Description: (§2) An oral formulation containing a compound of Formula (Ia) in […], 20% propylene glycol, 45 PEG 300, and 30% 0.01 N HCl was prepared. The formulation was orally administered to male rat, dog, cynomolgus monkey, and rhesus monkey according to the doses shown in Table 8 below.

PI-resistant viruses = test: Cytopathic antiviral assay in MT-2 cells, PI-resistant viruses; assay type: cell-based, HIV-1; details: for EC50 Fold-Change: Mutant/WT (HXB2D) EC50 ratio, mean ± s.d. of three experiments
Description: as §1

[2] = Plasma PK after single oral administration in solution, rhesus monkey; assay type: in vivo
Description: as §2

NRTI-resistant viruses = assay type: cell-based, HIV-1; details: MT-2 cells; for EC50 Fold-Change: Mutant/WT (LAI) EC50 ratio, mean ± s.d. of three experiments
Description: (§3) The antiviral activity of the compound of Formula (a) was tested against a panel of known HIV-1 mutants resistant to HIV PIs (ATV and DRV), NRTIs (TFV and FTC), NNRTIs (RPV and EFV) or INSTIs (RAL, EVG and DTG) using a cytopathic antiviral assay in MT-2 cells.

WT LAI = test: microbe, parasite or virus in culture; assay type: cell-based, HIV-1; details: Human immunodeficiency virus 1, MT2, read-out: WT LAI EC50
Description: as §3

[3] = male, plasma, single oral 4.0 mg/kg, solution in 5% ethanol/20% propylene glycol/45% PEG 300/30% 0.01 N HCl, mean ± SD, n=3

Compound: CC(C)(C#Cc1ccc(-c2ccc(Cl)c3c(NS(C)(=O)=O)nn(CC(F)(F)F)c23)c([C@H](Cc2cc(F)cc(F)c2)NC(=O)Cn2nc(C(F)(F)F)c3c2C(F)(F)[C@@H]2C[C@H]32)n1)S(C)(=O)=O [Formula (Ia), N—((S)-1-(3-(4-chloro-3-(methylsulfonamido)-1-(2,2,2-trifluoroethyl)-1H-indazol-7-yl)-6-(3-methyl-3-(methylsulfonyl)but-1-yn-1-yl)pyridin-2-yl)-2-(3,5-difluorophenyl)ethyl)-2-((3bS,4aR)-5,5-difluoro-3-(trifluoromethyl)-3b,4,4a,5-tetrahydro-1H-cyclopropa[3,4]cyclopenta[1,2-c]pyrazol-1-yl)acetamide]
- EC50 Fold-Change (NNRTI-resistant viruses; K103N): 0.3 ± 0.1
- EC50 Fold-Change (NNRTI-resistant viruses; K103N/Y181C): 0.5 ± 0.2
- EC50 Fold-Change (NNRTI-resistant viruses; L100I/K103N): 0.5 ± 0.2
- EC50 Fold-Change (NNRTI-resistant viruses; Y181C): 1.6 ± 1.0
- EC50 Fold-Change (NNRTI-resistant viruses; Y188L): 0.5 ± 0.1
- activity against all tested mutants, in words (NNRTI-resistant viruses; mutants resistant to NNRTIs): fully active
- Tmax [1]: 8.7 to 18.7 h
- EC50 Fold-Change (PI-resistant viruses; G48V/V82A/L90M): 0.4 ± 0.2
- EC50 Fold-Change (PI-resistant viruses; G48V/V82S): 0.4 ± 0.1
- EC50 Fold-Change (PI-resistant viruses; I50V): 0.6 ± 0.2
- EC50 Fold-Change (PI-resistant viruses; I84V/L90M): 0.3 ± 0.1
- activity against all tested mutants, in words (PI-resistant viruses; mutants resistant to PIs): fully active
- bioavailability ([2]; male, plasma, single oral 4.0 mg/kg, same solution, calculated based on AUC0-72h, mean ± SD, n=3, read-out: F (oral bioavailability)): 4.4 ± 1.7%
- AUC(0-inf) [2, 3]: 1130 ± 446 µM·h
- Cmax [2, 3]: 29.4 ± 7.5 µM
- Tmax [2, 3]: 18.7 ± 9.2 h
- AUC(0-t) ([2]; male, plasma, single oral 4.0 mg/kg, solution in 5% ethanol/20% propylene glycol/45% PEG 300/30% 0.01 N HCl, mean ± SD, n=3, read-out: AUC0-72h): 972 ± 367 µM·h
- F % (bioavailability), in words ([2]; oral solution): low
- EC50 Fold-Change (NRTI-resistant viruses; 6TAMs): 0.4 ± 0.2
- EC50 Fold-Change (NRTI-resistant viruses; K65R): 0.7 ± 0.2
- EC50 Fold-Change (NRTI-resistant viruses; M184V): 0.5 ± 0.3
- activity against all tested mutants, in words (NRTI-resistant viruses; mutants resistant to NRTIs): fully active
- EC50 (WT LAI): 0.14 ± 0.03 nM
